Results from PubChem BioAssay AID1259407 (Chemical Carcinogenesis Research Information System (CCRIS), 2018).
Calls of active or inactive are those of the source. No rule for the calls is given here.

System: CCRIS mutagenicity, Ames/micronucleus/aberration tests
Test: CCRIS mutagenicity studies
[1] = Test System: AMES SALMONELLA TYPHIMURIUM, Strain/Indicator: TA98, Metabolic Activation: NONE, Method: STANDARD PLATE
[2] = Test System: AMES SALMONELLA TYPHIMURIUM, Strain/Indicator: TA100, Metabolic Activation: NONE, Method: STANDARD PLATE

Measured: mutagenic call

CC1=CC(=O)c2ccccc2C1=O
active: Test System: AMES SALMONELLA TYPHIMURIUM, Strain/Indicator: TA97, Metabolic Activation: NONE, Method: PREINCUBATION active; positive | Test System: AMES SALMONELLA TYPHIMURIUM, Strain/Indicator: TA98, Metabolic Activation: RAT, LIVER, S-9, PHENOBARBITAL AND 5,6-BENZOFLAVONE, Method: PREINCUBATION active; positive | Test System: AMES SALMONELLA TYPHIMURIUM, Strain/Indicator: TA2637, Metabolic Activation: NONE, Method: PREINCUBATION active; positive | Test System: AMES SALMONELLA TYPHIMURIUM, Strain/Indicator: TA2637, Metabolic Activation: RAT, LIVER, S-9, PHENOBARBITAL AND 5,6-BENZOFLAVONE, Method: PREINCUBATION active; positive | Test System: E. COLI, Strain/Indicator: IC202, Metabolic Activation: NONE, Method: STANDARD PLATE active; positive | Test System: E. COLI, Strain/Indicator: IC203, Metabolic Activation: NONE, Method: STANDARD PLATE active; positive
inactive: Test System: AMES SALMONELLA TYPHIMURIUM, Strain/Indicator: TA97, Metabolic Activation: RAT, LIVER, S-9, PHENOBARBITAL AND 5,6-BENZOFLAVONE, Method: PREINCUBATION inactive; negative | Test System: AMES SALMONELLA TYPHIMURIUM, Strain/Indicator: TA97A, Metabolic Activation: NONE, Method: PREINCUBATION inactive; negative | Test System: AMES SALMONELLA TYPHIMURIUM, Strain/Indicator: TA98, Metabolic Activation: NONE, Method: PREINCUBATION inactive; negative | Test System: AMES SALMONELLA TYPHIMURIUM, Strain/Indicator: TA98, Metabolic Activation: NONE, Method: SPIRAL ASSAY inactive; negative | [1] inactive; negative | Test System: AMES SALMONELLA TYPHIMURIUM, Strain/Indicator: TA98, Metabolic Activation: RAT, LIVER, S-9, AROCLOR 1254, Method: SPIRAL ASSAY inactive; negative | Test System: AMES SALMONELLA TYPHIMURIUM, Strain/Indicator: TA98, Metabolic Activation: RAT, LIVER, S-9, AROCLOR 1254, Method: STANDARD PLATE inactive; negative | Test System: AMES SALMONELLA TYPHIMURIUM, Strain/Indicator: TA100, Metabolic Activation: NONE, Method: SPIRAL ASSAY inactive; negative | [2] inactive; negative | Test System: AMES SALMONELLA TYPHIMURIUM, Strain/Indicator: TA100, Metabolic Activation: RAT, LIVER, S-9, AROCLOR 1254, Method: SPIRAL ASSAY inactive; negative | Test System: AMES SALMONELLA TYPHIMURIUM, Strain/Indicator: TA100, Metabolic Activation: RAT, LIVER, S-9, AROCLOR 1254, Method: STANDARD PLATE inactive; negative | Test System: AMES SALMONELLA TYPHIMURIUM, Strain/Indicator: TA100, Metabolic Activation: RAT, LIVER, S-9, PHENOBARBITAL AND 5,6-BENZOFLAVONE, Method: PREINCUBATION inactive; negative | Test System: AMES SALMONELLA TYPHIMURIUM, Strain/Indicator: TA102, Metabolic Activation: NONE, Method: PREINCUBATION inactive; negative | Test System: AMES SALMONELLA TYPHIMURIUM, Strain/Indicator: TA102, Metabolic Activation: NONE, Method: STANDARD PLATE inactive; negative | Test System: AMES SALMONELLA TYPHIMURIUM, Strain/Indicator: TA102, Metabolic Activation: RAT, LIVER, S-9, PHENOBARBITAL AND 5,6-BENZOFLAVONE, Method: PREINCUBATION inactive; negative | Test System: AMES SALMONELLA TYPHIMURIUM, Strain/Indicator: TA104, Metabolic Activation: RAT, LIVER, S-9, PHENOBARBITAL AND 5,6-BENZOFLAVONE, Method: PREINCUBATION inactive; negative | Test System: AMES SALMONELLA TYPHIMURIUM, Strain/Indicator: TA1535, Metabolic Activation: NONE, Method: PREINCUBATION inactive; negative | Test System: AMES SALMONELLA TYPHIMURIUM, Strain/Indicator: TA1535, Metabolic Activation: NONE, Method: SPIRAL ASSAY inactive; negative | Test System: AMES SALMONELLA TYPHIMURIUM, Strain/Indicator: TA1535, Metabolic Activation: NONE, Method: STANDARD PLATE inactive; negative | Test System: AMES SALMONELLA TYPHIMURIUM, Strain/Indicator: TA1535, Metabolic Activation: RAT, LIVER, S-9, AROCLOR 1254, Method: SPIRAL ASSAY inactive; negative | Test System: AMES SALMONELLA TYPHIMURIUM, Strain/Indicator: TA1535, Metabolic Activation: RAT, LIVER, S-9, AROCLOR 1254, Method: STANDARD PLATE inactive; negative | Test System: AMES SALMONELLA TYPHIMURIUM, Strain/Indicator: TA1535, Metabolic Activation: RAT, LIVER, S-9, PHENOBARBITAL AND 5,6-BENZOFLAVONE, Method: PREINCUBATION inactive; negative | Test System: AMES SALMONELLA TYPHIMURIUM, Strain/Indicator: TA1537, Metabolic Activation: NONE, Method: PREINCUBATION inactive; negative | Test System: AMES SALMONELLA TYPHIMURIUM, Strain/Indicator: TA1537, Metabolic Activation: NONE, Method: SPIRAL ASSAY inactive; negative | Test System: AMES SALMONELLA TYPHIMURIUM, Strain/Indicator: TA1537, Metabolic Activation: NONE, Method: STANDARD PLATE inactive; negative | Test System: AMES SALMONELLA TYPHIMURIUM, Strain/Indicator: TA1537, Metabolic Activation: RAT, LIVER, S-9, AROCLOR 1254, Method: SPIRAL ASSAY inactive; negative | Test System: AMES SALMONELLA TYPHIMURIUM, Strain/Indicator: TA1537, Metabolic Activation: RAT, LIVER, S-9, AROCLOR 1254, Method: STANDARD PLATE inactive; negative | Test System: AMES SALMONELLA TYPHIMURIUM, Strain/Indicator: TA1537, Metabolic Activation: RAT, LIVER, S-9, PHENOBARBITAL AND 5,6-BENZOFLAVONE, Method: PREINCUBATION inactive; negative | Test System: AMES SALMONELLA TYPHIMURIUM, Strain/Indicator: TA1538, Metabolic Activation: NONE, Method: PREINCUBATION inactive; negative | Test System: AMES SALMONELLA TYPHIMURIUM, Strain/Indicator: TA1538, Metabolic Activation: RAT, LIVER, S-9, PHENOBARBITAL AND 5,6-BENZOFLAVONE, Method: PREINCUBATION inactive; negative | Test System: AMES SALMONELLA TYPHIMURIUM, Strain/Indicator: TA2638, Metabolic Activation: NONE, Method: STANDARD PLATE inactive; negative | Test System: E. COLI, Strain/Indicator: IC5059, Metabolic Activation: NONE, Method: STANDARD PLATE inactive; negative | Test System: E. COLI, Strain/Indicator: IC5064, Metabolic Activation: NONE, Method: STANDARD PLATE inactive; negative | Test System: E. COLI, Strain/Indicator: IC5184, Metabolic Activation: NONE, Method: STANDARD PLATE inactive; negative | Test System: E. COLI, Strain/Indicator: IC5185, Metabolic Activation: NONE, Method: STANDARD PLATE inactive; negative | Test System: E. COLI, Strain/Indicator: WP2 (PKM101), Metabolic Activation: NONE, Method: STANDARD PLATE inactive; negative | Test System: E. COLI, Strain/Indicator: WP2 UVRA (PKM101), Metabolic Activation: NONE, Method: STANDARD PLATE inactive; negative

CC1(C)C[C@H]2C=C(C=O)[C@]3(C=O)C[C@]3(C)[C@H]2C1
active: [1] active; positive | [2] active; positive | Test System: AMES SALMONELLA TYPHIMURIUM, Strain/Indicator: TA2637, Metabolic Activation: NONE, Method: STANDARD PLATE active; positive | Test System: CHINESE HAMSTER V-79, Strain/Indicator: V-79/6-THIOGUANINE (HGPRT), Metabolic Activation: NONE active; positive
